{"source": "patent US20120171123A1", "about": "“USES AND COMPOSITIONS FOR TREATMENT OF RHEUMATOID ARTHRITIS” (priority 2006, published 2012)", "test_system": "MTX-naïve adult patients with active, early RA (<3 years)", "assay": "Study J: radiographic progression (TSS, joint erosion, joint space narrowing)", "assay_type": "in vivo, human", "text": "The co-primary endpoints, comparing MTX alone with the combination at 1 year, were the ACR50 response (using non-responder imputation), and inhibition of radiographic progression, as measured by change in total Sharp score (TSS). In this study, the term “Major Clinical Response” (MCR) meant a continuous ACR70 response for 6 or more consecutive months.\nAt 1 and 2 years, the American College of Rheumatology (ACR) responses (ACR20, ACR50, and ACR70), the Disease Activity Score 28 (DAS28), and the change (Δ) in Total Sharp Score (TSS) were determined for all patients. Results were analyzed for the intention-to-treat (ITT) population using imputation for missing data. Clinical remission was defined as DAS28<2.6. The mean ΔTSS values at 1 year and 2 years (N=791) were determined for patients in each ACR response category (ACR20/50/70) and for patients with DAS28<2.6\nRadiographic progression was measured by Total Sharp Score (TSS) at baseline, and 1 and 2 years in the intention to treat population (ITT) using imputation for missing data. In this analysis, patients were divided into 1 of 2 categories by disease duration at baseline: <6 months (Group 1) or 6 months to 3 years (Group 2). Mean changes in TSS were reported for both groups by each of the 3 treatment arms from baseline to Year 1 and from Year 1 to Year 2.\nRadiographic progression was assessed by mean change from baseline in Total Sharp Score (TSS) and stratified into those with (ΔTSS>0.5) and without (Δ≦TSS 0.5). Patients were categorized as either having radiographic progression at 1 year (ΔTSS>0.5) or not (Δ≦TSS 0.5). A logistic regression model was used to identify predictors of radiographic disease progression by testing several baseline characteristics, including age, disease duration, RF status, TJC, SJC, joint erosions, and CRP. For analyses of CRP, patients were categorized as normal (CRP≦0.8 mg/dL) or abnormal (CRP>0.8 mg/dL).\nMean change from baseline in Total Sharp Score (TSS) was measured at 6 months, 1 year, and 2 years in the intention-to-treat (ITT) population using imputation for missing data. Patients were classified as having radiographic progression (mean change in TSS>0.5) or without radiographic progression (ΔTSS≦0.5). Patients with inadequate data were excluded from this analysis.\nPatients in the Ada+MTX and the MTX arms were classified according to level of clinical response (non-responder (<ACR20), ACR20, ACR50, or ACR70) and radiographic progression (Yes or No (ΔTSS≦0.5)). The ΔTSS was analyzed overall, and for ACR subgroups. This included determination of mean ΔTSS and probability plots.\nStudy J was a 2-year, double-blind, active comparator-controlled, Phase III study. […] For each patient, radiographs of hands and feet were taken at baseline, 6 months, 1 year and 2 years and evaluated for joint erosions (JE) and joint space narrowing (JSN) by 2 blinded radiologists. Changes from baseline in the modified total Sharp score (TSS, 0-398) were calculated for patients in each treatment arm. Cumulative probability plots were generated by estimating the probability of exceeding a given change in TSS. For each treatment, we calculated the percentages of patients whose ΔTSS exceeded specified thresholds, and the probability of having a given ΔTSS (using cumulative probability plots). For each of 4 cumulative probability ranges, 0-10%, 10-50%, 50-90% and 90-100% (higher numbered ranges=greater ΔTSS), mean ΔTSS values were calculated. In previous reports, Study J radiographic analyses employed linear imputation. In the present analysis, only observed data were employed, with no imputation.", "key": {"[1]": {"conditions": "disease duration 6 months-3 years (n=333)"}}, "note": "Marks after values point to notes of the source that are not given here.", "data": [{"substance": "adalimumab: human anti-TNF mAb (HUMIRA, Abbott Laboratories), described in U.S. Pat. No. 6,090,382 as D2E7", "values": [{"measurement": "Mean change in TSS", "setting": "1 year, ACR20 responders", "result": 2.3}, {"measurement": "mean change in JE score", "setting": "1 year, ACR20 responders", "result": 1.0}, {"measurement": "mean change in JSN", "setting": "1 year, ACR20 responders", "result": 1.3}, {"measurement": "Mean change in TSS", "setting": "1 year, ACR50 responders", "result": 1.7}, {"measurement": "mean change in JE score", "setting": "1 year, ACR50 responders", "result": 0.8}, {"measurement": "mean change in JSN", "setting": "1 year, ACR50 responders", "result": 0.9}, {"measurement": "Mean change in TSS", "setting": "1 year, ACR70 responders", "result": 1.1}, {"measurement": "mean change in JE score", "setting": "1 year, ACR70 responders", "result": 0.5}, {"measurement": "mean change in JSN", "setting": "1 year, ACR70 responders", "result": 0.6}, {"measurement": "patients with no radiographic progression", "setting": "1 year, abnormal baseline CRP normalized at 1 year", "result": 53, "unit": "%"}, {"measurement": "patients with no radiographic progression", "setting": "1 year, elevated CRP at both baseline and 1 year", "result": 32, "unit": "%"}, {"measurement": "Mean change in TSS", "setting": "1 year, patients with DAS28<2.6", "result": "−0.1"}, {"measurement": "% of patients with >4 change TSS", "setting": "2 years", "result": 30.7, "unit": "%"}, {"measurement": "% of patients with >10 change TSS", "setting": "2 years", "result": 17.5, "unit": "%"}, {"measurement": "% of patients with >20 change TSS", "setting": "2 years", "result": 5.4, "unit": "%"}, {"measurement": "patients with no radiographic progression (change in TSS ≦0.5)", "setting": "2 years", "result": 45, "unit": "%"}, {"measurement": "mean change in JE score", "setting": "2 years, ACR20 responders", "result": 2.3}, {"measurement": "mean change in JSN", "setting": "2 years, ACR20 responders", "result": 2.2}, {"measurement": "mean change in TSS from baseline", "setting": "2 years, ACR20 responders", "result": 4.5}, {"measurement": "mean change in JE score", "setting": "2 years, ACR50 responders", "result": 1.5}, {"measurement": "mean change in JSN", "setting": "2 years, ACR50 responders", "result": 1.9}, {"measurement": "mean change in TSS from baseline", "setting": "2 years, ACR50 responders", "result": 3.4}, {"measurement": "mean change in JE score", "setting": "2 years, ACR70 responders", "result": 1.6}, {"measurement": "mean change in JSN", "setting": "2 years, ACR70 responders", "result": 1.9}, {"measurement": "mean change in TSS from baseline", "setting": "2 years, ACR70 responders", "result": 3.5}, {"measurement": "Mean change in TSS", "setting": "2 years, patients with DAS28<2.6", "result": 1.3}, {"measurement": "Mean change in TSS", "setting": "2 years, all points (0-100), observed data", "result": 4.7}, {"measurement": "Mean change in TSS", "setting": "2 years, cumulative probability range 0-10", "result": "−2.8"}, {"measurement": "Mean change in TSS", "setting": "2 years, cumulative probability range 50-90", "result": "4.7^†"}, {"measurement": "Mean change in TSS", "setting": "2 years, cumulative probability range 90-100", "result": 28.9}, {"measurement": "% of patients with >4 change TSS", "setting": "6 months", "result": 0.5, "unit": "%"}, {"measurement": "% of patients with >10 change TSS", "setting": "6 months", "result": 6.5, "unit": "%"}, {"measurement": "% of patients with >20 change TSS", "setting": "6 months", "result": 10.6, "unit": "%"}, {"measurement": "patients with no radiographic progression", "setting": "6 months", "result": 63, "unit": "%"}, {"measurement": "Mean change in TSS", "setting": "6 months, all points (0-100), observed data", "result": "2.1*"}, {"measurement": "Mean change in TSS", "setting": "6 months, cumulative probability range 0-10", "result": "−3.4"}, {"measurement": "Mean change in TSS", "setting": "6 months, cumulative probability range 90-100", "result": 13.6}, {"measurement": "Patients with No Radiographic Progression at 1 Year", "setting": "CRP (BL and Year 1) Abnormal to Normal", "result": 53, "unit": "%*"}, {"measurement": "Patients with No Radiographic Progression at 1 Year", "setting": "CRP (BL and Year 1) Always Normal", "result": 91, "unit": "%"}, {"measurement": "Patients with No Radiographic Progression at 1 Year", "setting": "CRP (BL and Year 1) Never Normal", "result": 32, "unit": "%"}, {"measurement": "No Progression at Month 6, %", "setting": "Study J", "result": 63, "unit": "%"}, {"measurement": "No Progression at Month 6, patients/total", "setting": "Study J", "result": "172/271"}, {"measurement": "No Progression at Month 6 and Year 2, %", "setting": "Study J", "result": 63, "unit": "%"}, {"measurement": "No Progression at Month 6 and Year 2, patients/Month-6 non-progressors", "setting": "Study J", "result": "109/172"}, {"measurement": "Yr-2 Non-P, %", "setting": "among Mo-6 Non-Progressors", "result": 63, "unit": "%"}, {"measurement": "Yr-2 Non-P, number of patients", "setting": "among Mo-6 Non-Progressors", "result": 109}, {"measurement": "Yr-2 Prog, %", "setting": "among Mo-6 Non-Progressors", "result": 37, "unit": "%"}, {"measurement": "Yr-2 Prog, number of patients", "setting": "among Mo-6 Non-Progressors", "result": 63}, {"measurement": "Yr-2 Non-P, %", "setting": "among Mo-6 Progressors", "result": "13 (13%)"}, {"measurement": "Yr-2 Non-P, number of patients", "setting": "among Mo-6 Progressors", "result": "13 (13%)"}, {"measurement": "Yr-2 Prog, %", "setting": "among Mo-6 Progressors", "result": 87, "unit": "%"}, {"measurement": "Yr-2 Prog, number of patients", "setting": "among Mo-6 Progressors", "result": 86}, {"measurement": "mean change TSS during year 1", "setting": "[1]", "result": 2.4, "unit": "sharp score units"}, {"measurement": "mean change TSS during year 2", "setting": "[1]", "result": 3.2, "unit": "sharp score units"}, {"measurement": "mean change TSS during year 1", "setting": "disease duration <6 months", "result": 3.4, "unit": "sharp score units"}, {"measurement": "mean change TSS during year 2", "setting": "disease duration <6 months", "result": 2.1, "unit": "sharp score units"}, {"measurement": "Mo-6 Non-Progressors, % of arm", "setting": "no progression = ΔTSS≦0.5", "result": 63, "unit": "%"}, {"measurement": "Mo-6 Non-Progressors, number of patients", "setting": "no progression = ΔTSS≦0.5", "result": 172}, {"measurement": "patients with no progression at year 2", "setting": "no progression at month 6", "result": 63, "unit": "%"}, {"measurement": "Mo-6 Progressors, % of arm", "setting": "progression = ΔTSS>0.5", "result": 37, "unit": "%"}, {"measurement": "Mo-6 Progressors, number of patients", "setting": "progression = ΔTSS>0.5", "result": 99}, {"measurement": "patients with no progression at year 2", "setting": "progression at month 6", "result": 13, "unit": "%"}, {"measurement": "mean change from baseline in TSS", "setting": "week 26, ITT with imputation", "result": "2.1**"}]}]}
